Entries after “also recorded” stand apart in the source; their conditions may differ. Bridge positions count the residues as written; N and C are the ends. Square brackets hold non-standard residues; d marks the D form. Ends that are not written are not given here. Peptide text beside a SMILES is read from it. I, II: the chains in the order shown. Ac6c = NC1(C(=O)O)CCCCC1; Dab = NCC[C@H](N)C(=O)O; Dap = NC[C@H](N)C(=O)O
Key:
E. coli HK179 = details: HK179, 16 h
Source text: (§1) To investigate the activity of the A3-APO metabolites, Chex1-Arg20 single chain unit and an Arg7-Arg20 common cleavage fragment were synthesized and studied for their ability to kill Enterobacteriaceae strains in undiluted Muller-Hinton broth, a true measure of potential clinical viability (Otvos et al., 2005. J. Med. Chem. 48: 5349-5359). The peptides of the invention were made on a CEM Liberty automated synthesizer with standard Fmoc-chemistry. The peptides were detached from the resin with the carboxyl terminus of the C-terminal Arg residue being in the form of an amino amide, —C(O)—NH2 (“Chex1-Arg20-NH2” and “Arg7-Arg20-NH2”), while still in the microwave chamber, and were purified by RP-HPLC. […] The biological studies carried out on chemically synthesized peptides in this example and succeeding examples were carried out on the C-terminal modified versions of the peptides wherein the C-terminal carboxylic acid function was in the form of an amide, —C(O)—NH2. Antibacterial growth inhibition assays were performed using sterile 96-well polypropylene plates (Nunc F96 microtiter plates) in a final volume of 100 μL as described previously (Cudic et al., 2002. Peptides 23: 271-283). The cell concentrations were estimated by measuring the ultraviolet absorbance at 600 nm and applying the formula cfu/mL=A600(3.8×10^8), where cfu is the number of colony-forming units. Briefly, 50 μL of a suspension of midlogarithmic phase bacterial cultures diluted to 5×10^5 cfu/mL in Muller-Hinton broth (MHB) was added to 50 μL of serially diluted peptides also dissolved in MHB. The final peptide concentration was 128 μg/mL. Cultures were then incubated at 37° C., 5% CO2 for 16-20 h without shaking, and growth inhibition was measured by recording the absorbance at 600 nm using a microplate reader. […] The minimal inhibitory concentration indicates the lowest peptide dose where no visible bacterial growth is detected after 16 hours incubation in full strength Muller-Hinton broth at 37° C. The peptide Chex-pyrr-Dap dimer was also included in the study. […] (Cudic et al., 2002. Peptides 23: 271-283).

E. coli SEQ102 = details: SEQ102, 16 h
Source text: as §1

[1] = test system: Enterobacteriaceae strains
Source text: as §1

K. pneumoniae HK123 = details: HK123, 16 h
Source text: as §1

S. typhimurium G10215 = details: G10215, 16 h
Source text: as §1

Escherichia coli 5770 [2] = test: Blood bacterial counts before and after intraperitoneal dosing of infected CD-1 mice (FIGS. 4A, 4B); assay type: in vivo; details: compared with imipenem in the respective assay
Source text: FIGS. 4A and 4B illustrate blood bacterial counts before and after intraperitoneal drug dosing to Escherichia coli 5770 infected CD-1 mice. In FIG. 4A the symbols represent bacterial counts observed for infected and non-treated mice, A3-APO treated mice and imipenem treated mice. In FIG. 4B the symbols represent bacterial counts observed for infected and non-treated mice, Chex1-Arg20-NH2 treated mice and imipenem treated mice. Identical shapes if FIGS. 4A and 4B represent identical timepoints, respectively.
Both A3-APO and Chex1-Arg20 are active in lethal systemic infections. Efficacy is shown in both the increase of survival time and the reduction of blood bacterial counts. FIGS. 4A and 4B show blood bacterial counts before and after intraperitoneal drug dosing to Escherichia coli 5770 infected CD-1 mice. In FIG. 4A the symbols represent bacterial counts observed for infected and non-treated mice, A3-APO treated mice and imipenem treated mice. In FIG. 4B the symbols represent bacterial counts observed for infected and non-treated mice, Chex1-Arg20-NH2 treated mice and imipenem treated mice. Identical shapes if FIGS. 4A and 4B represent identical timepoints, respectively.

[3] = ex vivo blood, protocol of 'Stability of Peptide A3-APO in Whole Blood'; details: CD-1 mice, 37° C., up to 120 min
E. coli D31 = details: full strength Muller-Hinton broth, 16 hours, 37° C.
Source text: as §1

[4] = blood taken from the eye of CD-1 mice injected intravenously with A3-APO; details: up to 240 minutes
[5] = approximately 100 μL retrieved blood (female CD-1 mice retroorbitally bled), ex vivo; details: 37° C., up to 30 min
[6] = test system: extended-spectrum β-lactamase producing E. coli strain (designation 5770); test: Systemic infection model, cisplatin-pretreated CD-1 mice, blood bacterial counts; assay type: in vivo; details: 40 mg/kg ip
Description: As peptide drugs, such as antimicrobial peptides, are predominantly cleared through the kidneys (Klootwijk et al., 1997. J. Clin. Endocrinol. Metab. 82: 3068-3073) and the kidney functions of mice are 20-fold faster than those of humans, CD-1 female mice of 15-20 g were pretreated with 18 mg/kg cisplatin for 3 days to impair kidney clearance similar to the levels observed in humans (Mathe et al., 2006. Lab. Anim. 40: 296-300) before they were challenged intraperitoneally (ip) with 10^8 CFU per g mouse of an extended-spectrum β-lactamase producing E. coli strain (designation 5770). Four, 8 and 12 hours after challenge 10 or 20 mg/kg peptide Chex1-Arg20 or 40 mg/kg imipenem (as a positive control) were administered ip to 10 mice in each group. Imipenem is a broad spectrum β-lactam antibiotic. Prior to drug administration at all three timepoints, blood was taken from the tail vein of 3-5 mice for determining blood bacterial counts. […] Antimicrobials were administered ip 4 hours after challenge 3 times in 4 hour intervals. Blood was taken immediately before antimicrobial treatments. Numbers in parentheses indicate the number of mice with <10^3 CFU/mL. Bacterial counts were determined 10 times from different dilution of blood from 5 mice in each group in each timepoints.

Escherichia coli 5770 [7] = test: Mouse survival after last dose, systemic infection model without cisplatin pretreatment; assay type: in vivo; details: 40 mg/kg
Description: The survival rate and the dynamics of survival of mice after the last dose of an antibacterial peptide treatment (12 hours post-infection) were measured in a mouse model of Escherichia coli 5770 systemic infection. In this particular study, the animals were not pretreated with cisplatin. Ten animals were used in each group. […] In the control (infected, non-treated) and the imipenem treated rows, the first numbers reflect the number of surviving animals on the day of assay measuring the efficacy of the Chex1-Arg20 and the second numbers are the surviving control animals on the day of the A3-APO efficacy assay.

In the case of `CC[C@H](C)[C@H](NC(=O)[C@@H]1CCCN1C(=O)[C@H](CCCNC(=N)N)NC(=O)[C@@H]1CCCN1C(=O)[C@@H]1CCCN1C(=O)[C@@H](NC(=O)[C@@H]1CCCN1C(=O)[C@H](CCCNC(=N)N)NC(=O)[C@@H]1CCCN1C(=O)[C@H](CC(C)C)NC(=O)[C@H](Cc1ccc(O)cc1)NC(=O)[C@H](CO)NC(=O)CNC(=O)[C@H](CCCCN)NC(=O)[C@H](CC(=O)O)NC(=O)C1(N)CCCCC1)[C@@H](C)O)C(=O)N[C@@H](Cc1ccc(O)cc1)C(=O)N[C@@H](CC(N)=O)C(=O)N[C@@H](CCCNC(=N)N)C(=O)NC[C@H](NC(=O)[C@H](CCCNC(=N)N)NC(=O)[C@H](CC(N)=O)NC(=O)[C@H](Cc1ccc(O)cc1)NC(=O)[C@@H](NC(=O)[C@@H]1CCCN1C(=O)[C@H](CCCNC(=N)N)NC(=O)[C@@H]1CCCN1C(=O)[C@@H]1CCCN1C(=O)[C@@H](NC(=O)[C@@H]1CCCN1C(=O)[C@H](CCCNC(=N)N)NC(=O)[C@@H]1CCCN1C(=O)[C@H](CC(C)C)NC(=O)[C@H](Cc1ccc(O)cc1)NC(=O)[C@H](CO)NC(=O)CNC(=O)[C@H](CCCCN)NC(=O)[C@H](CC(=O)O)NC(=O)C1(N)CCCCC1)[C@@H](C)O)[C@@H](C)CC)C(=O)N[C@@H](CNC(C)=O)C(N)=O` [Chex-pyrr-Dap dimer] (I: H-[Ac6c]DKGSYLPRPTPPRPIYNR[Dap][Dap](Ac)-NH2 / II: H-[Ac6c]DKGSYLPRPTPPRPIYNR; amide I:20-II:C; N-terminus assumed), the “MIC against E. coli HK179” value (E. coli HK179) was over 64 µg/mL, the “MIC against E. coli SEQ102” value (E. coli SEQ102) was over 64 µg/mL and the “activity in full-strength Muller-Hinton broth” value ([1]; negative control) was “without significant activity”. For the same compound, the “MIC against K. pneumoniae HK123” value (K. pneumoniae HK123) was over 64 µg/mL and the “MIC against S. typhimurium G10215” value (S. typhimurium G10215) was over 64 µg/mL.

For “Chex-Arg-Pro-Asp-Lys-Pro-Arg-Pro-Tyr-Leu-Pro-Arg-Pro-Arg--Pro-Pro-Arg-Pro-Val-Arg-NH2 ([Ac6c]RPDKPRPYLPRPRPPRPVR-NH2) [Chex1-Arg20-NH2]”, the “reduction of blood bacterial counts” value (Escherichia coli 5770 [2]) was “reduced the bacterial counts to levels identical to those observed after imipenem treatment”.

With “Chex-Arg-Pro-Asp-Lys-Pro-Arg-Pro-Tyr-Leu-Pro-Arg-Pro-Arg-Pro-Pro-Arg-Pro-Val-Arg” the cleaved bond [3] was “Val19-Arg20”.

In the case of “RPYLPRPRPPRPVR-NH2 [Arg7-Arg20, Arg-Pro-Tyr-Leu-Pro-Arg-Pro-Arg-Pro-Pro-Arg-Pro-Val-Arg]”, the “MIC against E. coli D31” value (E. coli D31) was over 64 µg/mL, the “MIC against E. coli HK179” value (E. coli HK179) was over 64 µg/mL and the “MIC against E. coli SEQ102” value (E. coli SEQ102) was over 64 µg/mL. For the same compound, the “MIC values against the test strain” value [1] was over 64 µg/mL, the “MIC against K. pneumoniae HK123” value (K. pneumoniae HK123) was over 64 µg/mL and the “MIC against S. typhimurium G10215” value (S. typhimurium G10215) was over 64 µg/mL.

In the case of “(SEQ ID NO: 2)2-Dab (I: [Ac6c]RPDKPRPYLPRPRPPRPVR[Dab] / II: [Ac6c]RPDKPRPYLPRPRPPRPVR; amide I:21-II:C (inferred))”, the fragment found [4] was “Chex1-Arg20; Chex-Arg-Pro-Asp-Lys-Pro-Arg-Pro-Tyr-Leu-Pro-Arg-Pro-Arg-Pro-Pro-Arg-Pro-Val-Arg (SEQ ID NO: 2), major, 5 minutes” and the fragment found [5] was “Chex1-Val19; Chex-Arg-Pro-Asp-Lys-Pro-Arg-Pro-Tyr-Leu-Pro-Arg-Pro-Arg-Pro-Pro-Arg-Pro-Val (SEQ ID NO: 4), 30 min; also recorded: Chex1-Dab21; Chex-Arg-Pro-Asp-Lys-Pro-Arg-Pro-Tyr-Leu-Pro-Arg-Pro-Arg-Pro-Pro-Arg-Pro-Val-Arg-Dab (SEQ ID NO: 7), 30 min”.

With `C[C@@H](O)[C@H]1C(=O)N2C(C(=O)O)=C(SCCN=CN)C[C@H]12` [Imipenem, reference compound] the “Bacterial counts in blood after inoculation/challenge” value ([6]; 4 h (blood taken before first dose)) was 3.2 × 10^5 CFU/mL, the “Bacterial counts in blood after inoculation/challenge” value ([6]; 8 h) was 3.7 × 10^3 CFU/mL and the “Bacterial counts in blood after inoculation/challenge” value ([6]; 12 h) was < 1.2 × 10^3 CFU/mL. The “number of surviving mice (10 animals each)” value (“number of surviving mice” for short) (Escherichia coli 5770 [7]; 0 h after last dose, day of the A3-APO assay) was 9, the “number of surviving mice” value (Escherichia coli 5770 [7]; 0 h after last dose, day of the Chex1-Arg20 assay) was 10 and the “number of surviving mice” value (Escherichia coli 5770 [7]; 3 h after last dose, day of the A3-APO assay) was 9. For the same compound, the “number of surviving mice” value (Escherichia coli 5770 [7]; 3 h after last dose, day of the Chex1-Arg20 assay) was 10, the “number of surviving mice” value (Escherichia coli 5770 [7]; 6 h after last dose, day of the A3-APO assay) was 9 and the “number of surviving mice” value (Escherichia coli 5770 [7]; 6 h after last dose, day of the Chex1-Arg20 assay) was 10. The “number of surviving mice” value (Escherichia coli 5770 [7]; 9 h after last dose, day of the A3-APO assay) was 9, the “number of surviving mice” value (Escherichia coli 5770 [7]; 9 h after last dose, day of the Chex1-Arg20 assay) was 10 and the “number of surviving mice” value (Escherichia coli 5770 [7]; 12 h after last dose, day of the A3-APO assay) was 9. For the same compound, the “number of surviving mice” value (Escherichia coli 5770 [7]; 12 h after last dose, day of the Chex1-Arg20 assay) was 10.

From patent US8492515B2 (priority 2008, dated 2013)
